The subject of experiment [1] is animal models of concussion. The experiment can be described thus: animal models of concussion. The format is in vivo. The text has this:
(§1) ent-19-norprogesterone is a fully synthetic, non-naturally, occurring neurosteroid.

Experiment [2] can be described thus: preclinical studies of neuroprotective effects. The format is in vivo. The conditions noted are these: compared to related neurosteroids.
From the text: as §1

Experimental findings from US20250186751A1, “BREATH-POWERED NASAL DEVICES FOR TREATMENT OF TRAUMATIC BRAIN INJURY (TBI), INCLUDING CONCUSSION, AND METHODS AND METHODS” (Odyssey Health, Inc., priority 2021, published 2025) are described below.

Regarding `CC(=O)[C@@H]1CCC2C3CCC4=CC(=O)CC[C@H]4C3CC[C@]21C` (single isomer, unassigned) [ent-19-norprogesterone, ent-19-norpregn-4-ene-3,20-dione], in experiment [1], the “behavioral pathology associated with brain injury symptoms such as memory impairment, anxiety, and motor/sensory performance” value is “reduces the behavioral pathology”. In addition, the neuroprotective effects entry in experiment [2] is listed as “equivalent, if not superior, neuroprotective effects compared to related neurosteroids”.
